One experiment concerns HUT. Kind of experiment: Cell inhibition assay (SRB cell viability), HUT. The format is cell-based. Here is the method: (§1) The corresponding cancer cell lines (Hela, U937 and HUT) growing in log phase were harvested and seeded at 1000 cells/well (200 ul final volume) into 96-well tissue culture plates. Following 24 h of cell growth cells were treated with compounds (final concentration of 20 uM). Plates were then re-incubated for a further 72 h before a sulphorhodamine B (SRB) cell viability assay was conducted according to Skehan 1990 J Natl Canc Inst 82, 1107-1112.
(§2) Data were expressed as a percentage inhibition of the control, measured in the absence of inhibitor, as follows: — % inhibition=100−((S^i/S^o)×100) where S^i is the signal in the presence of inhibitor and S^o is the signal in the presence of DMSO.
(§3) IC50 values were determined by non-linear regression analysis, after fitting the results of eight data points to the equation for sigmoidal dose response with variable slope (% activity against log concentration of compound), using Graphpad Prism software.
(§4) Results of testing the compounds of the examples in this assay are given in the third- fifth columns of Table 1.

Experiment [1] addresses histone deacetylase activity (HeLa nuclear extract). Nature of the experiment: HDAC fluorescent activity assay (Biomol Fluor de Lys), HeLa nuclear extract. It counts as biochemical. Particulars: Fluor de Lys substrate. Here is the method:
The ability of compounds to inhibit histone deacetylase activities was measured using the commercially available HDAC fluorescent activity assay from Biomol. In brief, the Fluor de Lys™ substrate, a lysine with an epsilon-amino acetylation, is incubated with the source of histone deacetylase activity (HeLa nuclear extract) in the presence or absence of inhibitor.
Deacetylation of the substrate sensitises the substrate to Fluor de Lys™ developer, which generates a fluorophore. Thus, incubation of the substrate with a source of HDAC activity results in an increase in signal that is diminished in the presence of an HDAC inhibitor.
Data are expressed as a percentage of the control, measured in the absence of inhibitor, with background signal being subtracted from all samples, as follows: — % activity=((S^i−B)/(S^o−B))×100 where S^i is the signal in the presence of substrate, enzyme and inhibitor, S^o is the signal in the presence of substrate, enzyme and the vehicle in which the inhibitor is dissolved, and B is the background signal measured in the absence of enzyme.
as §3
Histone deacetylase activity from crude nuclear extract derived from HeLa cells was used for screening. The preparation, purchased from 4C (Seneffe, Belgium), was prepared from HeLa cells harvested whilst in exponential growth phase. The nuclear extract is prepared according to Dignam JD1983 Nucl. Acid. Res. 11, 1475-1489, snap frozen in liquid nitrogen and stored at −80° C. The final buffer composition was 20 mM Hepes, 100 mM KCl, 0.2 mM EDTA, 0.5 mM DTT, 0.2 mM PMSF and 20% (v/v) glycerol.
Results of testing the compounds of the examples in this assay are given in the second column of Table 1 below.

In another experiment the test system is Hela. Kind of experiment: Cell inhibition assay (SRB cell viability), Hela. It counts as cell-based. Particulars: 72 h, Hela cells. Here is the method:
as §1, §2, §3, §4

The next experiment has as its system U937. Nature of the experiment: Cell inhibition assay (SRB cell viability), U937. It counts as cell-based. Conditions: U937 cells. The method, then: as §1, §2, §3, §4

What is called IC50 is the concentration that gives 50% inhibition. Read a low IC50 as greater potency. With `CC(=O)N[C@@H](Cc1ccc(NC(=O)CCCCCCC(=O)NO)cc1)C(=O)O` [Example 2, (S)-2-Acetylamino-3-[4-(7-hydroxycarbamoyl-heptanoylamino)-phenyl]-propionic acid], the IC50 was > 3300 nM in the experiment with HUT (72 h, HUT cells); 101 to 1000 nM in experiment [1]; > 3300 nM with Hela (Homo sapiens, HeLa); > 3300 nM in the experiment with U937 (Homo sapiens, U-937, 72 h).
Regarding `O=C(NO)c1cc2ccc(CNCc3ccc(OCCC[C@H](NC4CCCCC4)C(=O)OC4CCCC4)cc3)cc2s1` [Example 22, (S)-2-Cyclohexylamino-S-(4-{[(2-hydroxycarbamoyl-benzo[b]thiophen-6-ylmethyl)-amino]-methyl}-phenoxy)-pentanoic acid cyclopentyl ester], the IC50 with HUT (72 h, HUT cells) lay in the range of 330 to 3300 nM; in experiment [1], 101 to 1000 nM; in the experiment on Hela (Homo sapiens, HeLa) it was 330 to 3300 nM; with U937 (Homo sapiens, U-937, 72 h), 330 to 3300 nM.
On to `N[C@@H](CCCOc1ccc(CNCc2ccc3cc(C(=O)NO)sc3c2)cc1)C(=O)OC1CCCC1` [Example 17, (S)-2-Amino-5-(4-{[(2-hydroxycarbamoyl-benzo[b]thiophen-6-ylmethyl)-amino]-methyl}-phenoxy)-pentanoic acid cyclopentyl ester], for which the IC50 with HUT (HUT cells, 72 h) is 330 to 3300 nM; in experiment [1], < 100 nM; in the experiment on Hela it was 330 to 3300 nM; in the experiment on U937 (72 h) it was 330 to 3300 nM.
Regarding `N[C@@H](CCOc1ccc(NC(=O)CCCCCCC(=O)NO)cc1)C(=O)OC1CCCC1` [Example 7, (S)-2-Amino-4-[4-(7-hydroxycarbamoyl-heptanoylamino)-phenoxy]-butyric acid cyclopentyl ester], the IC50 with HUT (72 h, HUT cells) fell in the range of 330 to 3300 nM; in experiment [1], 101 to 1000 nM; in the experiment on Hela (Homo sapiens, HeLa), 330 to 3300 nM; with U937 (Homo sapiens, U-937, 72 h) it was 330 to 3300 nM.
`NC(C(=O)OC1CCCC1)C1CCC(Oc2ccc(CNCc3ccc4cc(C(=O)NO)sc4c3)cc2)CC1` (stereo not shown) [Example 30, Amino-[4-(4-{[(2-hydroxycarbamoyl-benzo[b]thiophen-6-ylmethyl)-amino]-methyl}-phenoxy)-cyclohexyl]-acetic acid cyclopentyl ester]: the IC50 in the experiment on HUT (72 h, HUT cells) was < 330 nM; in experiment [1], < 100 nM; in the experiment with Hela (Homo sapiens, HeLa) it was 330 to 3300 nM; in the experiment on U937 (Homo sapiens, U-937, 72 h), < 330 nM.
As to `COc1cc(CNCc2ccc3cc(C(=O)NO)sc3c2)ccc1OCCC[C@H](N)C(=O)OC1CCCC1` [Example 19, (S)-2-Amino-5-(4-{[(2-hydroxycarbamoyl-benzo[b]thiophen-6-ylmethyl)-amino]-methyl}-2-methoxyphenoxy)-pentanoic acid cyclopentyl ester], the 50% inhibitory concentration (IC50) in the experiment on HUT (72 h, HUT cells) was 330 to 3300 nM; in experiment [1], < 100 nM; in the experiment with Hela (Homo sapiens, HeLa) it was 330 to 3300 nM; in the experiment with U937 (Homo sapiens, U-937, 72 h), 330 to 3300 nM.
For the molecule `N[C@H](CCOc1ccc(CNCc2ccc3cc(C(=O)NO)sc3c2)cc1)C(=O)OC1CCCC1` [Example 13, (R)-2-Amino-4-(4-{[(2-hydroxycarbamoyl-benzo[b]thiophen-6-ylmethyl)-amino]-methyl}phenoxy)-butyric acid cyclopentyl ester], the half-maximal inhibitory concentration (IC50) in the experiment on HUT (72 h, HUT cells) is < 330 nM; in experiment [1], < 100 nM; in the experiment on Hela (Homo sapiens, HeLa), < 330 nM; in the experiment with U937 (Homo sapiens, U-937, 72 h) it was < 330 nM.
With `CC(=O)N[C@@H](Cc1ccc(NC(=O)CCCCCCC(=O)NO)cc1)C(=O)OC1CCCC1` [Example 1, (S)-2-Acetylamino-3-[4-(7-hydroxycarbamoyl-heptanoylamino)-phenyl]-propionic acid cyclopentyl ester], the IC50 with HUT (72 h, HUT cells) is 330 to 3300 nM; in experiment [1] it was 101 to 1000 nM; with Hela (Homo sapiens, HeLa), > 3300 nM; in the experiment with U937 (Homo sapiens, U-937, 72 h), 330 to 3300 nM.
Consider `N[C@@H](CCOc1cccc(NC(=O)CCCCCCC(=O)NO)c1)C(=O)OC1CCCC1` [Example 5, (S)-2-Amino-4-[3-(7-hydroxycarbamoyl-heptanoylamino)-phenoxy]-butyric acid cyclopentyl ester], for which the IC50 is 330 to 3300 nM in the experiment on HUT (72 h, HUT cells); < 100 nM in experiment [1]; 330 to 3300 nM with Hela (Homo sapiens, HeLa); 330 to 3300 nM in the experiment with U937 (Homo sapiens, U-937, 72 h).
On to `N[C@@H](Cc1ccc(Oc2ccc(CNCc3ccc4cc(C(=O)NO)sc4c3)cc2)cc1)C(=O)OC1CCCC1` [Example 26, (S)-2-Amino-3-[4-(4-{[(2-hydroxycarbamoyl-benzo[b]thiophen-6-ylmethyl)-amino]-methyl}-phenoxy)-phenyl]-propionic acid cyclopentyl ester], for which the IC50 is < 330 nM with HUT (72 h, HUT cells); < 100 nM in experiment [1]; 330 to 3300 nM in the experiment with Hela (Homo sapiens, HeLa); < 330 nM in the experiment on U937 (Homo sapiens, U-937, 72 h).

These data come from US7973181B2, “Hydroxamic acid derivatives as inhibitors of HDAC enzymatic activity” (Chroma Therapeutics Ltd., priority 2005, dated 2011).
